# Measured values published in ChEMBL document CHEMBL1201862, “PubChem BioAssay data set” (2004).
# Calls of active or inactive are those of the source.
# Tests used:
# [1] = MITF: Counter assay: A375 proliferation Measured in Cell-Based System Using Plate Reader - 2084-03_Inhibitor_Dose_DryPowder_Activity_Set8.; format: functional; conditions: A-375
# [2] = inhibitors of TRPM1-promoter reporter in SK-MEL-5 – cell-based, luciferase, dry powder, set 8, MITF inhibitor project, dose response (AID 624430); format: functional
# [3] = MITF Orthogonal Assay: SK-MEL-5 CTG Assay Measured in Cell-Based System Using Plate Reader - 2084-02_Inhibitor_Dose_DryPowder_Activity_Set7.; format: functional
# [4] = growth inhibition of SK-MEL-5 melanoma cells – cell-based, CellTiter-Glo luminescence, dry powder, set 8, orthogonal assay for MITF inhibitor project, dose response (AID 651586); format: functional
# [5] = MITF Orthogonal Assay: MALME3 CTG Assay Measured in Cell-Based System Using Plate Reader - 2084-04_Inhibitor_Dose_DryPowder_Activity_Set6.; format: functional; conditions: MALME-3
# [6] = inhibitors of TRPM1-promoter reporter in SK-MEL-5 – cell-based, luciferase, dry powder, set 9, MITF inhibitor project, dose response (AID 651588); format: functional
# [7] = growth inhibition of MALME3 cells – cell-based, CellTiter-Glo luminescence, dry powder, set 5, orthogonal assay for MITF inhibitor project, dose response (AID 651584); format: functional; conditions: MALME-3
# [8] = viability reduction in hepatoma cells – cell-based, ATP luminescence, dry powder, Set4, cytotoxicity control, dose response (AID 743143); format: functional; conditions: HepG2
# [9] = cytotoxicity toward HT-29 cells – cell-based, CellTiter-Glo luminescence, IC50, dose response (AID 1117330); format: functional
# [10] = RKO cell viability reduction, dose response, CellTiter-Glo luminescence (AID 1117322); format: functional
# [11] = Reduced DLD-1 viability, concentration-response, CellTiter-Glo luminescence (AID 1117352); format: functional
# [12] = cytotoxicity toward HCT116 cells – cell-based, CellTiter-Glo luminescence, IC50, dose response (AID 1117332); format: functional; conditions: HCT-116
# [13] = SNU-C1 cell viability reduction, dose response, CellTiter-Glo luminescence (AID 1117323); format: functional, cell-based
# [14] = HCT116 cell viability decrease, GSK3B pretreatment – CellTiter-Glo, IC50, dose response (AID 1117339); format: functional; conditions: HCT-116
# [15] = CellTiter-Glo luminescence survival assay, SW480 colon tumor line, concentration-response curve, half-maximal inhibitory concentration (AID 1117338); format: functional
# [16] = rise of 4N DNA cells, HeLa – IC50, dose response (AID 1117351); format: functional, cell-based
# [17] = cytotoxicity toward Colo320 cells – cell-based, CellTiter-Glo luminescence, IC50, dose response (AID 1117334); format: functional; conditions: COLO 320
# [18] = rise of 2N DNA cells, HeLa – IC50, dose response (AID 1117349); format: functional, cell-based
# [19] = Late stage results for the probe development effort to identify inhibitors of Plasmodium falciparum gametocytes: Luminescence-based cell-based high throughput dose response assay to identify inhibitors of viability of late stage Plasmodium falciparum gametocytes.; format: functional
# [20] = Dd2 malaria parasite growth inhibition potency – SYBR Green, dry powder samples, dose response (AID 1159566); format: functional, cell-based;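 also: potency for growth inhibition with lower SYBR green DNA signal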
# [21] = toxicity to human HepG2 hepatoma cells – cell-based, plate reader, dry powder samples, cytotoxicity control, dose response (AID 1159569); format: functional;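 also: inhibitor potency with signal falling toward the positive control level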
# [22] = growth inhibition of PfATP4-mutant resistant parasites – NITD609-resistant line, SYBR Green, dry powder, dose response (AID 1159571); format: functional, cell-based;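 also: parasites synchronized at ring stage by sorbitol before testing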
# [23] = growth inhibition of yeast DHODH-expressing 3D7 parasites – SYBR Green, dry powder samples, dose response (AID 1159570); format: functional, cell-based;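 also: parasite growth measured after 72 hours of compound exposure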
# [24] = P. falciparum Dd2 growth inhibitors, dose response, SYBR Green, cherry-picked samples (AID 1159567); format: functional, cell-based
# [25] = molecular target: T1, Low molecular weight phosphotyrosine protein phosphatase (Homo sapiens, UniProt P24666); assay: inhibition of human LMPTP enzyme activity – biochemical, absorbance, pNPP substrate, LMPTP-A isoform, set 2, orthogonal assay, dose response (AID 743308); format: functional
# T1 sequence (P24666 whole entry): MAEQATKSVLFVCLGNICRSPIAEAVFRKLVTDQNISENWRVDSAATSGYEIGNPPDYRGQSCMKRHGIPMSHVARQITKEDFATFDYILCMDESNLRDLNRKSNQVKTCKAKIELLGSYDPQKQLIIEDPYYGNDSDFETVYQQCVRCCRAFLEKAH
# [26] = molecular target: T1, Low molecular weight phosphotyrosine protein phosphatase; assay: inhibition of LMPTP-A enzymatic activity – biochemical, OMFP substrate, fluorescence intensity, set 2, dose response (AID 743307); format: functional
smiles,measurement,setting,value
CC(C)N1CCN(C2=C(Nc3ccc(F)cc3F)C(=O)c3ccccc3C2=O)CC1,AC50,[1],> 70 µM (inactive)
same,AC50,[2],2.16 µM (active)
same,AC50,[3],8.73 µM (active)
same,AC50,[4],59.1 µM (active)
same,AC50,[5],25.4 µM (active)
same,AC50,[6],9.91 µM (active)
same,AC50,[7],25.4 µM (active)
O=C(CCn1cnc2ccccc2c1=O)NC1CCCc2ccccc21 (stereo unspecified),AC50,[8],> 52 µM (inactive)
Cc1cc(N)c2ccccc2[n+]1CCCCCCCCCC[n+]1c(C)cc(N)c2ccccc21,IC50,[9],> 20 µM (inactive)
same,IC50,[10],2.45 µM (active)
same,IC50,[11],5.72 µM (inactive)
same,IC50,[12],> 20 µM (inactive)
same,IC50,[13],1.29 µM (active)
same,IC50,[14],> 20 µM (inactive)
same,IC50,[15],3.83 µM (active)
same,IC50,[16],> 10 µM (inactive)
same,IC50,[17],15.9 µM (inactive)
same,IC50,[18],> 10 µM (inactive)
Cc1cccc(-c2nn(-c3ccccc3)cc2C(=O)Nc2nccs2)c1,IC50,[19],> 74.4 µM (inactive)
OC[C@@H]1[C@@H](c2ccccc2)C2(CN(CCC(F)(F)F)C2)N1Cc1ccccc1,AC50,[20],2.48 µM (active)
same,AC50,[21],69.1 µM (active)
same,AC50,[22],2.36 µM (active)
same,AC50,[23],2.89 µM (active)
same,AC50,[24],2.27 µM (active)
FC(F)(F)c1cccc(-c2cc(NCCCN3CCCCC3)c3ccccc3n2)c1,IC50,[25],6.94 µM (active)
same,IC50,[26],2.66 µM (active)
